Test results as given in article PMC11406516, “The Tuberculosis Drug Candidate SQ109 and Its Analogs Have Multistage Activity against Plasmodium falciparum” (ACS Infectious Diseases, 2024).
≈ marks a conversion by molar mass, not a printed value. Read-outs that look alike come from different tables or passages of the source. Marks after values point to notes of the source that are not given here.

What was measured:
[1] = system: female gametes; experiment: Female gamete inhibition assay; type: cell-based, Plasmodium falciparum; set-up: concentration or dose not given beside the values
Method: Similarly, female gametes were activated as described previously.[31] Monoclonal anti-Pfs antibody conjugated to FITC was used to detect female gametes. Image acquisition was performed using a Zeiss Axio Lab.A1 epifluorescence microscope with a 100/1.4 numerical aperture (NA) oil immersion. Thirty images were captured per sample and analyzed manually.

[2] = system: male gametes (PfNF54); experiment: Male gamete exflagellation inhibition assay (EIA); type: cell-based; details: Plasmodium falciparum; 2 μM, 48 h; read-out: male gamete inhibition %
Method: The EIA was performed using video microscopy by capturing the movement of exflagellation centers over time as previously described.[4],[30] Mature PfNF54 stage V gametocytes (>95%;) were treated with 2 μM of drug for 48 h before the activation of exflagellation, without removing drug pressure. Movement was semi-automatically quantified from 15 videos of 8–10 s each between 15 and 22.5 min after incubation. Each video was analyzed using ICY-bio image analysis software.

[3] = system: PfNF54 ABS; set-up: method as in Stampolaki et al.[5]; details: drug-sensitive NF54; ref Stampolaki et al.[5]; read-out: Pf ABS IC50 NF54; cited from earlier work
[4] = system: HepG2 cells; experiment: HepG2 cytotoxicity, LDH release assay; details: Homo sapiens, HepG2, 24 h, read-out: HepG2 EC50
Method: (§1) Furthermore, compounds were evaluated against late (stage IV/V) gametocytes from PfNF54 (PfNF54 LGc), with viability detected with PrestoBlue,[15] and orthogonally evaluated for toxicity against a human hepatocellular carcinoma line, HepG2.[16]
(§2) Human hepatocellular liver carcinoma cells (HepG2) were cultivated in vitro in Dulbecco’s Modified Eagle’s Medium (DMEM) supplemented with 10% (v/v) heat inactivated fetal bovine serum and 1% (v/v) penicillin/streptomycin.[14] Cells were detached with trypsin treatment at 80% confluency and were seeded in 96-well plates to adhere for 24 h under 5% CO2, humid (95%) conditions. Cells were subsequently exposed to drug pressure for 24 h and cytotoxicity was then determined using the lactate dehydrogenase (LDH) release assay through the colorimetric detection at 450 nm, as previously outlined.[4],[16]

[5] = physchem; type: physicochemical; details: 37 °C, pH 6.5, aqueous buffer, thermodynamic from solid
Method: The stock solutions (10^–2 M) of the assayed compounds were diluted to decreased molarity, from 300 to 0.1 μM, in 384 well transparent plate (Greiner 781801) with 1% DMSO:99% PBS buffer. Then, they were incubated at 37 °C and the light scattering was measured after 2 h in a NEPHELOstar Plus (BMG LABTECH). The results were adjusted to a segmented regression to obtain the maximum concentration in which compounds are soluble.
The solubility of each product was evaluated using an HPLC Agilent 1100 with a DAD detector. The samples were injected in an Agilent Poroshell 120 EC-C18, 2.7 μm, 50 mm × 4.6 mm column at 40 °C and 0.6 mL/min flow. The mobile phase was a mixture of A = water with 0.05% formic acid and B = acetonitrile with 0.05% formic acid. The procedure followed was from 95% A–5% B to 100% B in 3 min, 100% B in 3 min, from 100% B to 95% A–5% B in 1 min, 95% A–5% B in 3 min; the injection volume was set at 75 μL. […] The samples remained at these conditions between 12–24 h. Then, the samples were filtered through a 0.45 μm PVDF filter and either directly analyzed or diluted before analyzing. The obtained area under the curve was compared with the one from the standard solution.

[6] = system: PfK1; experiment: SYBR Green I proliferation assay, asexual blood stages, multidrug-resistant K1; details: Plasmodium falciparum, K1, read-out: Pf ABS IC50 K1
Method: (§3) P. falciparum asexual parasites were cultured from drug-sensitive NF54 (PfNF54) and multidrug resistant strains PfK1. Parasites were maintained in human erythrocytes (O+, suspended at 5% hematocrit) in RPMI-1640 culture medium (23.81 mM sodium bicarbonate, 0.024 mg/mL gentamycin, 25 mM HEPES pH 7.5, 0.2% D-glucose, 0.2 mM hypoxanthine and Albumax II) under hypoxic conditions (5% CO2, 5% O2 and 90% N2) with moderate shaking (60 rpm) at 37 °C. Cultures were synchronized to >95% in the ring stage with 5% (w/v) D-sorbitol treatment.[28]
(§4) Activity against the asexual stage of P. falciparum was evaluated using the SYBR Green I-based fluorescence assay as previously described.[4],[16] Cellular proliferation was measured on synchronized in vitro PfNF54 ring-stage parasites (1% parasitemia, 2% hematocrit), following drug pressure for 96 h. Chloroquine was used as the positive drug control for complete inhibition of parasite proliferation.

[7] = system: PfNF54 LGc (stage IV/V gametocytes); experiment: PrestoBlue late-stage gametocyte viability assay; type: cell-based, Plasmodium falciparum; details: Plasmodium falciparum; stage IV/V gametocytes, 48 h drug pressure; read-out: PfNF54 LGc IC50
Method: Gametocytogenesis was induced on highly synchronized (>95%) asexual ring-stage parasites from PfNF54 at 0.5% parasitemia and 6% hematocrit and thereafter maintained in glucose-deprived media as previously described.[29],[15] After 3 days, the hematocrit was decreased to 4%. Parasites were maintained in complete culture media supplemented with 50 mM N-acetyl-glucosamine 5–10 days post induction to inhibit proliferation of residual asexual blood stages. Gametocyte progression and morphology was also monitored microscopically using Giemsa-stained thin smears.
activity against the sexual stages of P. falciparum was evaluated using the PrestoBlue fluorescence assay as previously described.[4] Activity was measured on PfNF54 stage IV/V gametocytes (2% gametocytemia, 5% hematocrit) previously seeded with compounds (in non-lethal DMSO) for 48 h drug pressure, after which PrestoBlue reagent was added and incubated for 2 h. Fluorescence was detected in the supernatant at 612 nm. Dihydroartemisinin (DHA) was used as a positive drug control.

[8] = system: PfNF54 ABS; experiment: SYBR Green I proliferation assay, asexual blood stages, drug-sensitive NF54; details: for IC50: Plasmodium falciparum, NF54, 96 h, read-out: Pf ABS IC50 NF54
Method: as §3, §4

[9] = system: oocyst formation; experiment: Standard membrane feeding assay (SMFA), oocyst formation in Anopheles coluzzii; type: in vivo; details: Plasmodium falciparum, 48 h drug treatment at 2 μM, single biological repeat
Method: Transmission-blocking activity was confirmed in the standard membrane feeding assay (SMFA), by determining transmission-reducing activity (TRA; reduction in oocyst counts) and transmission-blocking activity (TBA, reduction in oocyst prevalence), 8–10 days after feeding female mosquitoes on gametocyte-infected blood, treated with selected compounds (at 2 μM).
SMFA was performed using glass feeders as is outlined.[4],[16] Once again, mature stage V gametocytes (>95%) were treated with 2 μM of each compound for 48 h prior to feeding. Anopheles coluzzii females were allowed to feed on gametocyte cultures (1.5–2.5% gametocytemia, 50% hematocrit in A+ male serum with fresh erythrocytes) in the dark for 40 min. All unfed or partially fed mosquitoes were removed, and remaining females housed for 8–10 days. Mosquitoes were dissected to remove midguts, and oocysts counted under bright field illumination at ×20–×40 magnification. The percentage of block in transmission (transmission-blocking activity; TBA) and the percentage of reduction in the number of oocysts (transmission-reducing activity; TRA) were calculated after normalizing to the control untreated sample.

[10] = system: HepG2 cells; set-up: method as in Stampolaki et al.[5]; details: compound at 20 μM; ref Stampolaki et al.[5]; cited from earlier work
[11] = in vitro; type: in vitro ADME; details: microsomes
Method: The microsomal stability assay used a single-point assay design (Di et al., 2004). Briefly, the compounds were incubated at 1 μM in human, rat, and mouse liver microsomes (0.4 mg/mL) for 30 min at 37 °C. Reactions were quenched by adding ice-cold acetonitrile containing internal standard (carbamazepine, 0.0236 μg/mL). The samples were then centrifuged, and the samples were analyzed by liquid chromatography with tandem mass spectrometry (LC-MS/MS) (Agilent Rapid Resolution HPLC, AB SCIEX 4500 MS) for the disappearance of the parent compound. Half-life, clearance and hepatic […] ratios were determined using standard equations.

[12] = HepG2 cytotoxicity, LDH release assay; details: human, HepG2 cells
Method: as §1, §2

[13] = read-out: oocyst formation (% inhibition) TBA
[14] = read-out: oocyst formation (% inhibition) TRA

| Compound | female gamete inhibition % [1] | inhibition at 2 µM [2] | IC50 [3] | EC50 [4] | solubility [5] | IC50 [6] | IC50 [7] | fold improvement in ABS activity compared to 1 ([8]; PfNF54 ABS) | inhibition at 2 µM [9, 13] | inhibition at 2 µM [9, 14] | HepG2 % viability [10] | microsomal CLint at 1 µM ([11]; human) | microsomal CLint at 1 µM ([11]; mouse) | microsomal CLint at 1 µM ([11]; rat) | IC50 [8] | viability at 24 h, 20 µM [12] |
| --- | --- | --- | --- | --- | --- | --- | --- | --- | --- | --- | --- | --- | --- | --- | --- | --- |
| CCC1(NCCNC/C=C(\C)CCC=C(C)C)C2CC3CC(C2)CC1C3 (stereo not shown) [Compound 2] | 78.88 ± 4.46% | 95.5 ± 4.55% | 0.16 ± 0.07 µM | 5.21 ± 1.33 µM | 840 µM (≈ 301 µg/mL) | 0.1 ± 0.02 µM | 0.58 ± 0.04 µM | 10 fold | – | – | – | – | – | – | – | – |
| CCCCC1(NCCNC/C=C(\C)CCC=C(C)C)C2CC3CC(C2)CC1C3 (stereo not shown) [Compound 3] | 67.05 ± 0.39% | 81.4 ± 8.64% | 0.27 ± 0.04 µM | 10.2 ± 1.7 µM | – | 0.13 ± 0.03 µM | 0.3 ± 0.03 µM | – | 36% | 11% | – | – | – | – | – | – |
| CCCC1(NCCNC/C=C(\C)CCC=C(C)C)C2CC3CC(C2)CC1C3 (stereo not shown) [Compound 6] | 64.59 ± 12.33% | 34.6 ± 14.3% | – | – | 334 µM (≈ 124 µg/mL) | 1.33 ± 0.5 µM | 0.37 ± 0.02 µM | – | 67% | 53% | 100^%c | 322 µL/min/mg | 308 µL/min/mg | 400 µL/min/mg | 0.5 ± 0.14 µM | – |
| CC(C)=CCC/C(C)=C/CNCCNC1(C)C2CC3CC(C2)CC1C3 (stereo not shown) [Compound 7] | 34.05 ± 9.23% | 27.1 ± 14% | 0.66 ± 0.16 µM | – | 773 µM (≈ 266 µg/mL) | 0.86 ± 0.27 µM | 0.2 ± 0.02 µM | – | – | – | 100%^c | 254 µL/min/mg | 348 µL/min/mg | 373 µL/min/mg | – | – |
| CC(C)=CCC/C(C)=C/CNCCNC(C)(C)C1C2CC3CC(C2)CC1C3 (stereo not shown) [Compound 8] | 54.00 ± 2.54% | 23.5 ± 9.72% | 0.77 ± 0.1 µM | – | 2340 µM (≈ 872 µg/mL) | 1.61 ± 0.55 µM | 0.29 ± 0.01 µM | – | – | – | 100%^c | 426 µL/min/mg | 218 µL/min/mg | 467 µL/min/mg | – | – |
| CC(C)=CCC/C(C)=C/CNCCNC12CC3CC(CC(C3)C1)C2 [Compound 9] | 90.50 ± 7.17% | 96.7 ± 3.33% | – | 12.9 ± 1.4 µM | – | 2.32 ± 0.55 µM | 0.7 ± 0.01 µM | – | 47% | 70% | – | – | – | – | 0.99 ± 0.21 µM | – |
| CC(C)=CCC/C(C)=C/CNCCNC1CC2CCC1C2 (stereo not shown) [Compound 10] | – | – | – | – | 155 µM (≈ 45 µg/mL) | – | 0.5 ± 0.07 µM | – | – | – | – | – | – | – | 1.17 ± 0.2 µM | 97% |
| CC(C)=CCC/C(C)=C/CNCCNC1CC2CCC1CC2 (stereo not shown) [Compound 11] | – | – | – | – | – | – | 0.22 ± 0.04 µM | – | – | – | – | – | – | – | 1.66 ± 0.3 µM | 100% |
| CC(C)=CCC/C(C)=C/CNCCNCc1ccccc1 [Compound 12] | – | – | – | – | 160 µM (≈ 45.8 µg/mL) | – | 0.41 ± 0.2 µM | – | – | – | – | – | – | – | 4.32 ± 0.6 µM | 94% |
| CC(C)=CCC/C(C)=C/CN(C)CCNC1C2CC3CC(C2)CC1C3 (stereo not shown) [Compound 14] | – | – | – | – | – | – | > 10 µM | – | – | – | – | – | – | – | 1.09 ± 0.35 µM | 100% |
